From US11311531B2, “Method for producing benzazoloquinolium (BQs) salts and using the biological activity of the composition” (Sistema Universitario Ana G. Mendez, Inc., priority 2014, dated 2022)
pIC50: −log10 of the molar value.

Experiments:
[1] = Cytotoxicity activity of CBQs; type: cell-based; conditions: human, A-431 cells; A-431 cell line
[2] = test system: human colorectal adenocarcinoma COLO-205; assay: Apoptosis analysis by Annexin V expression; type: cell-based; conditions: 24 hours
Experimental: Cell culture conditions: The cell cultures utilized in this study were human colorectal adenocarcinoma COLO-205 (ATCC CCL-222). Cultures were maintained in RPMI 1640 media (ATCC, Manassas Va.) supplemented with 10% fetal bovine serum (ATCC) maintained at 37° C. with 95% air and 5% CO2. Apoptosis analysis by Annexin V expression: The annexin V assay allows detection of the migration phosphatidylserine (PS) to the exterior surface of cells, a characteristic event in apoptotic cells. Approximately 2.5×10^6 cells were treated for 24 hours with 10 μM and 20 μM doses of the BQ test compounds. Controls used in all assays were camptothecin 10 and vehicle (DMSO). After a 24-hour exposure, cells were stained with the annexin V conjugate, and propidium iodide (Biotium, Hayward, Calif.). Samples were analyzed by using the Nucleo Counter NC3000 system annexin V assay (Chemometec, Allerød, Denmark). This system allows for measurement and quantification of stained cells. A one-way ANOVA with post hoc Tukey test was also performed for all assays using GraphPad Prism version 6. DNA Fragmentation: DNA Fragmentation can be used as a marker for detection of cells undergoing apoptosis. This enzyme mediated event can be quantified by measuring DNA fragments. The Nucleo Counter NC3000 assay is based on removal of small DNA fragments and retention of 4′,6-diamidino-2-phenylindole (DAPI) stained higher weight fragments. After treatment with BQ's at the test doses, cells were fixed with 70% ethanol for at least 24 hours, stained with 1 μg/ml DAPI, and analyzed using the NC3000 instrument measuring DAPI intensity. Mitochondrial Membrane Permeability: Mitochondria permeability is central in the cell death process. The Nucleocounter NC3000 preset mitochondrial potential assay was used. Approximately 1×10^6 cells were stained with 5,5′,6,6′-Tetrachloro-1,1′,3,3′-tetraethyl-imidacarbocyanine iodide (JC-1) and 1 μg/ml DAPI and analyzed in the NC3000. depolarized cells will fluoresce green while cells with stable mitochondrial membrane potential will fluoresce orange. The change in ratio of green to orange fluorescence will determine the permeability state of the samples.

[3] = test system: human colorectal adenocarcinoma COLO-205; assay: Mitochondrial membrane permeability, JC-1 NC3000; type: cell-based; conditions: colo 205, versus negative control and camptothecin
Experimental: (§1) Cell culture conditions: The cell cultures utilized in this study were human colorectal adenocarcinoma COLO-205 (ATCC CCL-222). Cultures were maintained in RPMI 1640 media (ATCC, Manassas Va.) supplemented with 10% fetal bovine serum (ATCC) maintained at 37° C. with 95% air and 5% CO2. Apoptosis analysis by Annexin V expression: The annexin V assay allows detection of the migration phosphatidylserine (PS) to the exterior surface of cells, a characteristic event in apoptotic cells. Approximately 2.5×10^6 cells were treated for 24 hours with 10 μM and 20 μM doses of the BQ test compounds. Controls used in all assays were camptothecin 10 and vehicle (DMSO). […] Samples were analyzed by using the Nucleo Counter NC3000 system annexin V assay (Chemometec, Allerød, Denmark). This system allows for measurement and quantification of stained cells. […] This enzyme mediated event can be quantified by measuring DNA fragments. […] After treatment with BQ's at the test doses, cells were fixed with 70% ethanol for at least 24 hours, stained with 1 μg/ml DAPI, and analyzed using the NC3000 instrument measuring DAPI intensity. […] Approximately 1×10^6 cells were stained with 5,5′,6,6′-Tetrachloro-1,1′,3,3′-tetraethyl-imidacarbocyanine iodide (JC-1) and 1 μg/ml DAPI and analyzed in the NC3000. depolarized cells will fluoresce green while cells with stable mitochondrial membrane potential will fluoresce orange. […]

[4] = test system: human colorectal adenocarcinoma COLO-205; assay: DNA fragmentation, NC3000 DAPI; type: cell-based; conditions: colo 205, versus negative control and camptothecin
Experimental: as §1

[5] = test system: Toledo cells; assay: DNA fragmentation, NC3000 DAPI assay; type: cell-based, human; conditions: 48 hours
Experimental: (§2) Methods—Cultures were exposed for 48 hours to ABQ 48 at doses from 10 μM to 180 μM. Cells were harvested counted and assessed for cell viability implementing the Trypan Blue exclusion method using the Countess™ automated cell counter (Invitrogen Corp. Carlsbad, Calif.). The percentage of viable cells was calculated and graphed using Excel (Microsoft Corp. Redmond, Wash.). The mitochondrial membrane permeability assays was determined applying the Nucleocounter 3000, JC-1 assay. DNA fragmentation and cell cycle alterations were analyzed also through the Nucleocounter 3000 instrument.
(§3) Bioactivity 3. DNA fragmentation—Fragmentation of DNA as a marker for apoptosis is a commonly used assay. Analysis was performed applying the Nucleo counter NC3000 DNA fragmentation assay. Determination of the degree of DNA fragmentation is based on the retention of DAPI, a nucleic acid staining reagent. As described previously TK-6, and Toledo cells were kept in culture at the specified conditions. Cells where then treated with the tested compounds as previously described for 48 hours, after which nutritional media removed, cells harvested, fixed with 70% ethanol, incubated and stained with 1 μg/ml DAPI according to manufacturer's specifications for image analysis measuring DAPI intensity.

[6] = test system: TK-6 cells; assay: DNA fragmentation, NC3000 DAPI assay; type: cell-based, human; conditions: TK6, 48 hours
Experimental: as §2, §3
(§4) DNA fragmentation—Analysis was performed applying the Nucleo counter NC3000 DNA fragmentation assay. Determination of the degree of DNA fragmentation is based on the retention of DAPI, a nucleic acid staining reagent. Prior to treatment with the tested compounds A431 and TK-6 cells were kept in culture at the specified conditions. Cells where then treated with the tested compounds at the respective IC50 concentrations ([…] DNA fragmentation protocol was as recommended by Nucleo counter NC3000 manufacturer.

[7] = test system: NCI 60 human tumor cell line panel; assay: NCI 60 human tumor cell line screen, one dose, whole panel; type: cell-based; conditions: for activity in the NCI 60 screen (growth inhibition, in words): one dose; for growth inhibition: 10 μM
Experimental: (§5) The National Cancer Institute (NCI) 60 human tumor cell line screen uses genetically characterized cells to determine biological activity against various cell lines. The panel is comprised of various cell types representing some of the most important cancer types. Two of the benzazolo[3,2-a]quinolinium salts i.e. NBQ 48 (NSC: D-763303) and ABQ 48 (NSC: D-763307) were tested at a dose of 10 μM on the entire cell line panel. The complete details of the NCI-60 cell line screening are describe in document Feasibility of drug screening with panels of human tumor cell lines using a microculture tetrazolium assay. Cancer research, 1988, 48(3), 589-601 (here included by reference).
(§6) Briefly, the cancer cells are grown in RPM1 1640 medium for 24 hours. Experimental compounds dissolved in DMSO are incubated with cells at 10 μM. After incubation the cells are stained with sulforhodamine B and the absorbance is read on a plate reader. The data reported as a mean graph are shown in the drawings FIG. 21 through FIGS. 24A-24I. For five dose study the test compound is incubated with cells at five different concentrations with 10-fold dilutions, from 10^−4 M, 10^−5, 10^−6, 10^−7, and 10^−8 M. Rest of the procedure is similar to the one dose experiment. After measurement, the (GI50) is calculated from time zero, control growth, and the five concentration absorbance. Inhibitory concentrations (LC50) represent the average of two experiments.
(§7) All the one-dose data of these compounds is reported as a mean of the growth percent of BQ exposed cells. One dose assay results are relative to control and number of cells at time 0. Growth inhibition values are placed from 0 to 100 whereas lethality is reflected in values less than 0. A sample obtained value of 100 means that no growth was inhibited. If the value is for example 30 then growth inhibition is 70%. If a sample has a value of −30 then this means 30% lethality, conversely if the value would be −100 the all cells in the sample are dead.

[8] = test system: A431 epitheloid carcinoma cells; assay: Cell viability, Trypan Blue exclusion; type: cell-based, human
Experimental: (§8) Cell cultures—The three cell lines A431 epitheloid carcinoma cells (ATCC CRL-1555), the human TK-6 lymphoblasts cells (ATCC CRL-8015) and Toledo lymphoma (CRL-2631 respectively) were obtained from American Type Culture Collection (ATCC, Manassas, Va.) and cultured on RPMI 1640 (ATCC) cell culture media with 10% fetal bovine serum (ATCC). Cell cultures were maintained in a cell culture incubator at 37° C. and 5% CO2.
as §2

[9] = test system: TK-6 lymphoblasts cells; assay: Cell viability, Trypan Blue exclusion; type: cell-based, human
Experimental: as §8, §2

[10] = test system: Toledo lymphoma cells; assay: Cell viability, Trypan Blue exclusion; type: cell-based, human
Experimental: as §8, §2

[11] = test system: A431 cells; assay: DNA fragmentation, NC3000 DAPI assay; type: cell-based, human; conditions: A431, ABQ 48 exposure
Experimental: as §2, §4

[12] = test system: Toledo cells; assay: Cell cycle disruption, DAPI image analysis; type: cell-based, human; conditions: 48 hours
Experimental: as §2
(§9) Bioactivity 4. Cell Cycle disruption—Cell cycle effects are of great importance to the characterization of any novel therapeutic agent. This most fundamental cellular process is integral in determining the effects of any drug upon the target cells. After treatment with the tested BQs at previously described conditions, cells were harvested, and stained with 10 μg/ml DAPI (a DNA marker) according to manufacturer's specifications and analyzed with the instrument using image analysis to measure the DAPI intensity as an indicator of the DNA density.

[13] = test system: A431; assay: Cell cycle disruption, DAPI image analysis; type: cell-based, human; conditions: A431, ABQ 48 exposure
Experimental: as §2
as §9, with “Cell” for “Bioactivity 4. Cell”, “agent.” for “agent. This most fundamental cellular process is integral in determining the effects of any drug upon the target cells.”, “BQS 95 and BQS 38” for “BQs”

[14] = test system: TK6; assay: Cell cycle disruption, DAPI image analysis; type: cell-based, human; conditions: Tk6, ABQ 48 exposure
Experimental: as §2
as §9, with “Cell” for “Bioactivity 4. Cell”, “agent.” for “agent. This most fundamental cellular process is integral in determining the effects of any drug upon the target cells.”, “BQS 95 and BQS 38” for “BQs”

[15] = test system: A431; assay: Mitochondrial membrane permeability, JC-1 assay; type: cell-based, human
Experimental: as §2

[16] = test system: TK6; assay: Mitochondrial membrane permeability, JC-1 assay; type: cell-based, human
Experimental: as §2

[17] = test system: Toledo; assay: Mitochondrial membrane permeability, JC-1 assay; type: cell-based, human
Experimental: as §2

[18] = test system: KM12; assay: NCI 60 human tumor cell line screen, one dose; type: cell-based; conditions: 10 μM
Experimental: as §5, §6, §7

[19] = test system: SK-MEL-5; assay: NCI 60 human tumor cell line screen, one dose; type: cell-based; conditions: 10 μM
Experimental: as §5, §6, §7

[20] = test system: U251; assay: NCI 60 human tumor cell line screen, one dose; type: cell-based; conditions: 10 μM
Experimental: as §5, §6, §7

Compound: Cc1ccc2sc3ccc4c(Cl)cccc4[n+]3c2c1 [CBQ-108, 4-Chloro-10-methylbenzothiazolo[3,2-a]quinolinium chloride]
- pIC50 [1]: 5.43

Compound: 7-(2,3,4-Trimethoxybenzyl)-3-aminostyrylbenzimidazo[3,2-a]quinolinium chloride [ABQ 234 TOM]
- apoptotic cells ([2]; 10 μM): 91%
- apoptotic cells ([2]; 20 μM): 91%
- mitochondrial membrane permeabilization [3]: higher mitochondrial permeabilization in comparison with the negative control (water as vehicle) and similar to the positive control camptothecin
- DNA fragmentation induction [4]: did not present evidence of DNA fragmentation

Compound: 7-(2,3,4-trimethoxybenzyl)-3-nitrobenzimidazo[3,2-a]quinolinium chloride [NBQ 234 TOM]
- apoptotic cells ([2]; 10 μM): 83.7%
- apoptotic cells ([2]; 20 μM): 87.5%
- mitochondrial membrane permeabilization [3]: higher mitochondrial permeabilization in comparison with the negative control (water as vehicle) but lower than cells treated with the positive control camptothecin
- DNA fragmentation induction [4]: higher DNA fragmentation in comparison with the negative control (water as vehicle) and higher than the positive control camptothecin

Compound: 7-benzyl-3-nitrobenzimidazolo[3,2-a]quinolinium chloride [NBQ-48]
- DNA fragmentation [5]: higher than the negative control
- DNA fragmentation [6]: higher than the negative control
- activity in the NCI 60 screen (growth inhibition, in words) [7]: less effective

Compound: Nc1ccc2c(ccc3n2c2ccccc2[n+]3Cc2ccccc2)c1.[Cl-] [ABQ-48, 7-Benzyl-3-aminobenzimidazo[3,2-a]quinolinium chloride]
- IC90 ([8]; A431): 90 µM
- pIC50 ([8]; A431, 48 hours exposure): 4.64
- IC90 ([9]; Tk6): 135 µM
- pIC50 ([9]; Tk6, 48 hours exposure): 5.07
- IC90 [10]: 100 µM
- pIC50 ([10]; 48 hours exposure): 4.30
- DNA fragmentation ([5]; listed as ABQ 48): observed
- DNA fragmentation ([5]; listed as ABQ48): higher than the negative control
- DNA fragmentation ([6]; listed as ABQ 48): observed
- DNA fragmentation ([6]; listed as ABQ48): higher than the negative control
- DNA fragmentation [11]: observed
- cell cycle alteration ([12]; listed as ABQ 48): observed
- cell cycle alteration ([12]; listed as ABQ48): arrested at the S/G2 stage
- cell cycle alteration [13]: observed
- cell cycle alteration [14]: observed
- mitochondrial membrane permeability [15]: observed
- mitochondrial membrane permeability [16]: observed
- mitochondrial membrane permeability [17]: observed
- growth inhibition [18]: > 90%
- growth inhibition [19]: > 90%
- growth inhibition [20]: > 90%
- growth inhibition ([7]; in no less than 8 cell lines): greater than 60%
- growth inhibition ([7]; in several cell lines): > 70%
- activity in the NCI 60 screen (growth inhibition, in words) [7]: highly effective
